Source: EP1090023B1 (GLAXO GROUP LIMITED, priority 1998, dated 1999)

How the values were obtained:
Assay type in all cases: cell-based
[1] = molecular target: T1, adenosine 3 (Homo sapiens, UniProt P0DMS8); assay: Agonist activity against adenosine receptor subtypes, CHO cells with cAMP response element/SPAP reporter (forskolin-enhanced cAMP); details: ratio to EC50 of NECA; transfected CHO cells; effect on forskolin-enhanced cAMP via SPAP
T1 sequence (P0DMS8 1-318): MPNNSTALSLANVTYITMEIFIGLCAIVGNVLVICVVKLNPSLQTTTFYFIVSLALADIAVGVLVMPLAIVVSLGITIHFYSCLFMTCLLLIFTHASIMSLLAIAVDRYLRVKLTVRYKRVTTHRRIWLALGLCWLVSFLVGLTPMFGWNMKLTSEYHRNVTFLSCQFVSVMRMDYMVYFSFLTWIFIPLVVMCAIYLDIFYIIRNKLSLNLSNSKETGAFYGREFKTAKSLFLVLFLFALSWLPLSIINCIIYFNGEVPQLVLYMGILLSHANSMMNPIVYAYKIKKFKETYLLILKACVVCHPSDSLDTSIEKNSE
Method: (§1) Compounds of the invention were tested for in vitro and in vivo biological activity in accordance with the following screens: • (1) Agonist activity against adenosine 2a, adenosine 1 and adenosine 3 receptor subtypes.
(§2) Agonist selectivity of compounds against other human adenosine receptors was determined using Chinese hamster ovary (CHO) cells transfected with the gene for the relevant human adenosine receptor following a method based on that of Castanon and Spevak, 1994 . The CHO cells were also transfected with cyclic AMP response elements promoting the gene for secreted placental alkaline phosphatase (SPAP) (Wood, 1995). The effect of test compounds was determined by their effects on basal levels of cAMP (A2a) or on forskolin-enhanced cAMP (A1 and A3) as reflected by changes in levels of SPAP. EC50 values for compounds were then determined as a ratio to that of the non-selective agonist N-ethyl carboxamide adenosine (NECA).

[2] = molecular target: T2, adenosine 1 (Homo sapiens, UniProt P30542); assay: as above; details: ratio to EC50 of NECA; transfected CHO cells; effect on forskolin-enhanced cAMP via SPAP
T2 sequence (P30542 1-326): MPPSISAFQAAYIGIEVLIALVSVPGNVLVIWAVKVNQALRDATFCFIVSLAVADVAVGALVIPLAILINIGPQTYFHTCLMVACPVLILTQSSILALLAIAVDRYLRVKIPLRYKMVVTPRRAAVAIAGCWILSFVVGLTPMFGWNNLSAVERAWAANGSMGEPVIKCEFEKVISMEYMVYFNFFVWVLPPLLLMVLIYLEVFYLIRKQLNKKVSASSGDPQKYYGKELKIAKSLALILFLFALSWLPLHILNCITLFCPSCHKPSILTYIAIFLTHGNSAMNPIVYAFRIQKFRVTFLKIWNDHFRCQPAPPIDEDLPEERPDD
Method: as §1, §2

[3] = molecular target: adenosine 2a (Homo sapiens, UniProt P29274); assay: Agonist activity against adenosine receptor subtypes, CHO cells with cAMP response element/SPAP reporter (basal cAMP); details: ratio to EC50 of NECA; transfected CHO cells; effect on basal cAMP via SPAP
Sequence of adenosine 2a (P29274 whole entry): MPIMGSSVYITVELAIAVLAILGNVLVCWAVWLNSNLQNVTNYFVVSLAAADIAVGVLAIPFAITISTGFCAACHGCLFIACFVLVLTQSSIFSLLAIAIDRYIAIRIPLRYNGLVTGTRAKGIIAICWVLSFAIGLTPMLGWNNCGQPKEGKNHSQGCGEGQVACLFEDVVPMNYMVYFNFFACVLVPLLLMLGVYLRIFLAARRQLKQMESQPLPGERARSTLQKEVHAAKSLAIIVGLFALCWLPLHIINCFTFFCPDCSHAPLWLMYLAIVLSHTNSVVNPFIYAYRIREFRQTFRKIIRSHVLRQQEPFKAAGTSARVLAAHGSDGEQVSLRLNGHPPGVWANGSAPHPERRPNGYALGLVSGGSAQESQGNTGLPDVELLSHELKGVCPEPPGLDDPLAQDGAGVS
Method: as §1, §2

SMILES	A3 (EC50 values as a ratio of that of NECA) [1]	A1 (EC50 values as a ratio of that of NECA) [2]	A2a (EC50 values as a ratio of that of NECA) [3]
CCc1nc([C@H]2O[C@@H](n3cnc4c(NCC(c5ccccc5)c5ccccc5)nc(N[C@H]5CC[C@H](N)CC5)nc43)[C@H](O)[C@@H]2O)no1.O=CO.O=CO (relative stereo) [Example 12, (2R,3R,4S,5R)-2-[2-(trans-4-Amino-cyclohexylamino)-6-(2,2-diphenyl-ethylamino)-purin-9-yl]-5-(5-ethyl-[1,2,4]oxadiazol-3-yl)-tetrahydro-furan-3,4-diol diformate]	>194	>8841	4.77
CCC(CC)Nc1nc(N[C@H]2CC[C@H](N)CC2)nc2c1ncn2[C@@H]1O[C@H](c2nnc(C3CC3)o2)[C@@H](O)[C@H]1O.O=CO.O=CO (relative stereo) [Example 36, (2R,3R,4S,5S)-2-[2-(trans-4-Amino-cyclohexylamino)-6-(1-ethyl-propylamino)-purin-9-yl]-5-(5-cyclopropyl-[1,3,4]oxadiazol-2-yl)-tetrahydro-furan-3,4-diol diformate]	>173	1105.6	26.3
Cc1nnc([C@H]2O[C@@H](n3cnc4c(NCC(c5ccccc5)c5ccccc5)nc(NCCN5CCCC5)nc43)[C@H](O)[C@@H]2O)[nH]1.O=CO [Example 1, (2R,3R,4S,5R)-2-[6-(2,2-Diphenyl-ethylamino)-2-(2-pyrrolidin-1-yl-ethylamino)-purin-9-yl]-5-(5-methyl-4H-[1,2,4]triazol-3-yl)-tetrahydro-furan-3,4-diol formate]	>1088	>8325	14.6
Cc1nnc([C@H]2O[C@@H](n3cnc4c(NCC(c5ccccc5)c5ccccc5)nc(N[C@H](CO)Cc5ccccc5)nc43)[C@H](O)[C@@H]2O)[nH]1.O=CO [Example 2, (2R,3R,4S,5R)-2-[6-(2,2-Diphenyl-ethylamino)-2-(1S-hydroxymethyl-2-phenyl-ethylamino)-purin-9-yl]-5-(5-methyl-4H-[1,2,4]triazol-3-yl)-tetrahydro-furan-3,4-diol formate]	>1087	>=7728	2.46
Cc1nnc([C@H]2O[C@@H](n3cnc4c(NCC(c5ccccc5)c5ccccc5)nc(NCCc5cn(C)cn5)nc43)[C@H](O)[C@@H]2O)[nH]1.O=CO [Example 3, (2R,3R,4S,5R)-2-{6-(2,2-Diphenyl-ethylamino)-2-[2-(1-methyl-1H-imidazol-4-yl)-ethylamino]-purin-9-yl}-5-(5-methyl-4H-[1,2,4]triazol-3-yl)-tetrahydro-furan-3,4-diol formate]	>698	>9058	3.54
Cc1nnc([C@H]2O[C@@H](n3cnc4c(NCC(c5ccccc5)c5ccccc5)nc(N[C@H]5CC[C@H](N)CC5)nc43)[C@H](O)[C@@H]2O)[nH]1.O=CO [Example 4, (2R,3R,4S,5R)-2-[2-(trans-4-Amino-cyclohexylamino)-6-(2,2-diphenyl-ethylamino)-purin-9-yl]-5-(5-methyl-4H-[1,2,4]triazol-3-yl)-tetrahydro-furan-3,4-diol formate]	>1052	4686	5.1
CCc1nnc([C@H]2O[C@@H](n3cnc4c(NCC(c5ccccc5)c5ccccc5)nc(N[C@H](CO)Cc5ccccc5)nc43)[C@H](O)[C@@H]2O)[nH]1.O=CO [Example 5, (2R,3R,4S,5R)-2-[6-(2,2-Diphenyl-ethylamino)-2-(1S-hydroxymethyl-2-phenyl-ethylamino)-purin-9-yl]-5-(5-ethyl-4H-[1,2,4]triazol-3-yl)-tetrahydro-furan-3,4-diol formate]	>319	>=5194	1
CCc1nnc([C@H]2O[C@@H](n3cnc4c(NCC(c5ccccc5)c5ccccc5)nc(N[C@H]5CC[C@H](N)CC5)nc43)[C@H](O)[C@@H]2O)[nH]1.O=CO [Example 6, (2R,3R,4S,5R)-2-[2-(trans-4-Amino-cyclohexylamino)-6-(2,2-diphenyl-ethylamino)-purin-9-yl]-5-(5-ethyl-4H-[1,2,4]triazol-3-yl)-tetrahydro-furan-3,4-diol formate]	>183	6739	12.3
CCc1nnc([C@H]2O[C@@H](n3cnc4c(NCC(c5ccccc5)c5ccccc5)nc(N[C@H](CO)C(C)C)nc43)[C@H](O)[C@@H]2O)[nH]1.O=CO [Example 7, (2R,3R,4S,5R)-2-[6-(2,2-Diphenyl-ethylamino)-2-(1S-hydroxymethyl-2-methyl-propylamino)-purin-9-yl]-5-(5-ethyl-4H-[1,2,4]triazol-3-yl)-tetrahydro-furan-3,4-diol formate]	>183	5327	2.94
CCc1nnc([C@H]2O[C@@H](n3cnc4c(NCC(c5ccccc5)c5ccccc5)nc(NCCN5CCOCC5)nc43)[C@H](O)[C@@H]2O)[nH]1.O=CO [Example 8, (2R,3R,4S,5R)-2-[6-(2,2-Diphenyl-ethylamino)-2-(2-morpholin-4-yl-ethylamino)-purin-9-yl]-5-(5-ethyl-4H-[1,2,4]triazol-3-yl)-tetrahydro-furan-3,4-diol formate]	>183	>10735	19.4
CCc1nnc([C@H]2O[C@@H](n3cnc4c(NCC(c5ccccc5)c5ccccc5)nc(N[C@@H]5CCNC5)nc43)[C@H](O)[C@@H]2O)[nH]1.O=CO [Example 9, (2R,3R,4S,5R)-2-[6-(2,2-Diphenyl-ethylamino)-2-(pyrrolidin-3R-ylamino)-purin-9-yl]-5-(5-ethyl-4H-[1,2,4]triazol-3-yl)-tetrahydro-furan-3,4-diol formate]	>147	>6032	3.25
CC(C)c1nnc([C@H]2O[C@@H](n3cnc4c(NCC(c5ccccc5)c5ccccc5)nc(N[C@H]5CC[C@H](N)CC5)nc43)[C@H](O)[C@@H]2O)[nH]1.O=CO [Example 10, (2R,3R,4S,5R)-2-[2-(trans-4-Amino-cyclohexylamino)-6-(2,2-diphenyl-ethylamino)-purin-9-yl]-5-(5-isopropyl-4H-[1,2,4]triazol-3-yl)-tetrahydro-furan-3,4-diol formate]	>326	1453.5	16.85
CC(C)c1nnc([C@H]2O[C@@H](n3cnc4c(NCC(c5ccccc5)c5ccccc5)nc(N[C@H](CO)Cc5ccccc5)nc43)[C@H](O)[C@@H]2O)[nH]1.O=CO [Example 11, (2R,3R,4S,5R)-2-[6-(2,2-Diphenyl-ethylamino)-2-(1S-hydroxymethyl-2-phenyl-ethylamino)-purin-9-yl]-5-(5-isopropyl-4H-[1,2,4]triazol-3-yl)-tetrahydro-furan-3,4-diol formate]	>257	2202	17.97
CCc1nc([C@H]2O[C@@H](n3cnc4c(NCC(c5ccccc5)c5ccccc5)nc(NCCc5cn(C)cn5)nc43)[C@H](O)[C@@H]2O)no1.O=CO [Example 13, (2R,3R,4S,5R)-2-{6-(2,2-Diphenyl-ethylamino)-2-[2-(1-methyl-1H-imidazol-4-yl)-ethylamino]-purin-9-yl}-5-(5-ethyl-[1,2,4]oxadiazol-3-yl)-tetrahydro-furan-3,4-diol formate]	>194	6620	1.29
CCc1nc([C@H]2O[C@@H](n3cnc4c(NCC(c5ccccc5)c5ccccc5)nc(NCCN5CCCCC5)nc43)[C@H](O)[C@@H]2O)no1.O=CO [Example 14, (2R,3R,4S,5R)-2-[6-(2,2-Diphenyl-ethylamino)-2-(2-piperidin-1-yl-ethylamino)-purin-9-yl]-5-(5-ethyl-[1,2,4]oxadiazol-3-yl)-tetrahydro-furan-3,4-diol formate]	>190	>=4762	12.86
